For one assay, the target named is BRM (Homo sapiens, UniProt P51531). The experiment in a line: Immunofluorescence assay for BRM degradation in SW1573 cells. In kind it is cell-based. More on the design: treated overnight at 4° C. with either BRM primary antibody (Cell signaling Cat #11966) or BRG primary antibody; endogenous in cells; host or cells: SW1573. Conditions: 20 hours incubation; for DC50: immunofluorescence mean nuclear signal, read-out: BRM IF Degradation IC50; for BRM IF Degradation Sinf (%): normalized to a known degrader control. The procedure, abridged: (§1)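 SW1573 cells treated with compound for 20 h, then fixed, permeabilized and immunostained for BRM or BRG1 with Hoechst nuclear counterstain. Mean nuclear intensity per cell quantified by high-content imaging; data normalized to a reference degrader control, with floating-maximum curve fits giving IC50 and Dmax.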

The target in another assay is T1, BRG1 (Homo sapiens, UniProt P51532).
T1 construct: either BRM primary antibody (Cell signaling Cat #11966) or BRG primary antibody (Abcam, ab 110641); endogenous in cells; host or cells: SW1573
The experiment in a line: Immunofluorescence assay for BRG1 degradation in SW1573 cells. In kind it is cell-based. The conditions noted are these: 20 hours incubation; for DC50: immunofluorescence mean nuclear signal, read-out: BRG1 IF Degradation IC50; for Dmax: SW1573, 20 h, normalized to a known degrader control, read-out: BRG1 IF Degradation Sinf (%). The procedure, abridged: as §1

Experimental findings from patent US11993599B2, “Therapeutic compounds” (Genentech, Inc., priority 2021, dated 2024) are described below.

T1 sequence (P51532 whole entry): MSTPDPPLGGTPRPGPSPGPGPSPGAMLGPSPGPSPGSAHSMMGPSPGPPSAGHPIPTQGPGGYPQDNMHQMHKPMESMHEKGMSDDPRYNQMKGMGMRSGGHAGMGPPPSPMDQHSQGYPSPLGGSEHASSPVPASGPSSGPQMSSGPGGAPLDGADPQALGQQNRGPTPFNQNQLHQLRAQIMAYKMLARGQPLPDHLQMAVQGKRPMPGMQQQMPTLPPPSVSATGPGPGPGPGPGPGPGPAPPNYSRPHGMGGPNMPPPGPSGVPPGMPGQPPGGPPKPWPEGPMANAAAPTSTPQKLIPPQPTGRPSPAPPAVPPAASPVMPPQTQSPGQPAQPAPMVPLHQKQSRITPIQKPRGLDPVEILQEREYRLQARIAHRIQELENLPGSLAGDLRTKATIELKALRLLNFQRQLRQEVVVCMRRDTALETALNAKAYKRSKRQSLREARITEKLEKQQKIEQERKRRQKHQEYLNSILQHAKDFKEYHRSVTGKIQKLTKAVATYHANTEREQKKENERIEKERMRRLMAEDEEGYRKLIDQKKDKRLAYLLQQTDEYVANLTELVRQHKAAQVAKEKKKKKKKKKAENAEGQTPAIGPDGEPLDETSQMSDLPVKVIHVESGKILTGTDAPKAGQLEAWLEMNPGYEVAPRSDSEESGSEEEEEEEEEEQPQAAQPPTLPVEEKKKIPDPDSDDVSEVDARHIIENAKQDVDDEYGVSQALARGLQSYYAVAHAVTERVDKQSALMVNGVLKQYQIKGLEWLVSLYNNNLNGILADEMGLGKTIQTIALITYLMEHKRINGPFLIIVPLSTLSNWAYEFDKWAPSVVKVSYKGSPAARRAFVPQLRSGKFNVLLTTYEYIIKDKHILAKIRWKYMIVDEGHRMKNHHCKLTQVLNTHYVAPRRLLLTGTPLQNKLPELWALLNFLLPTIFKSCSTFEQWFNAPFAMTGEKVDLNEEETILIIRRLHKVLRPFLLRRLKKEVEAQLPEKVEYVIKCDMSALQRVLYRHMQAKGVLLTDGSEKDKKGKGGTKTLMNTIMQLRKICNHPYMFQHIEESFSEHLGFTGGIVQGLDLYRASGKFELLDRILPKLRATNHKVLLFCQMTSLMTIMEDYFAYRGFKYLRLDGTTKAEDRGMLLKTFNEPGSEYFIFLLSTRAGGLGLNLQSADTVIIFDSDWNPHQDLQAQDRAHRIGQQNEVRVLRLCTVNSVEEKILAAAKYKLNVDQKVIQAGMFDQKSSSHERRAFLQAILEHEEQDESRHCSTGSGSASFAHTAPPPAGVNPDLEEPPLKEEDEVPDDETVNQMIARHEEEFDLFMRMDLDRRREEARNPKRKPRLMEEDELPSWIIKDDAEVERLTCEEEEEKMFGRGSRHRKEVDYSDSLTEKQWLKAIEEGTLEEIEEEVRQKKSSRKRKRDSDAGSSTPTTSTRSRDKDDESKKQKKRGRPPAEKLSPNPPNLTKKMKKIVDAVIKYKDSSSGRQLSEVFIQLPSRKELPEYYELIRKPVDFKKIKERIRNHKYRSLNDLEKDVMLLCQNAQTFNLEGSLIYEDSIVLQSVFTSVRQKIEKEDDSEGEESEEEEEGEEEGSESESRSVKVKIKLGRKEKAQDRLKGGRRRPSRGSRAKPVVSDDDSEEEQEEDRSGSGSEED
Sequence of BRM (P51531 whole entry): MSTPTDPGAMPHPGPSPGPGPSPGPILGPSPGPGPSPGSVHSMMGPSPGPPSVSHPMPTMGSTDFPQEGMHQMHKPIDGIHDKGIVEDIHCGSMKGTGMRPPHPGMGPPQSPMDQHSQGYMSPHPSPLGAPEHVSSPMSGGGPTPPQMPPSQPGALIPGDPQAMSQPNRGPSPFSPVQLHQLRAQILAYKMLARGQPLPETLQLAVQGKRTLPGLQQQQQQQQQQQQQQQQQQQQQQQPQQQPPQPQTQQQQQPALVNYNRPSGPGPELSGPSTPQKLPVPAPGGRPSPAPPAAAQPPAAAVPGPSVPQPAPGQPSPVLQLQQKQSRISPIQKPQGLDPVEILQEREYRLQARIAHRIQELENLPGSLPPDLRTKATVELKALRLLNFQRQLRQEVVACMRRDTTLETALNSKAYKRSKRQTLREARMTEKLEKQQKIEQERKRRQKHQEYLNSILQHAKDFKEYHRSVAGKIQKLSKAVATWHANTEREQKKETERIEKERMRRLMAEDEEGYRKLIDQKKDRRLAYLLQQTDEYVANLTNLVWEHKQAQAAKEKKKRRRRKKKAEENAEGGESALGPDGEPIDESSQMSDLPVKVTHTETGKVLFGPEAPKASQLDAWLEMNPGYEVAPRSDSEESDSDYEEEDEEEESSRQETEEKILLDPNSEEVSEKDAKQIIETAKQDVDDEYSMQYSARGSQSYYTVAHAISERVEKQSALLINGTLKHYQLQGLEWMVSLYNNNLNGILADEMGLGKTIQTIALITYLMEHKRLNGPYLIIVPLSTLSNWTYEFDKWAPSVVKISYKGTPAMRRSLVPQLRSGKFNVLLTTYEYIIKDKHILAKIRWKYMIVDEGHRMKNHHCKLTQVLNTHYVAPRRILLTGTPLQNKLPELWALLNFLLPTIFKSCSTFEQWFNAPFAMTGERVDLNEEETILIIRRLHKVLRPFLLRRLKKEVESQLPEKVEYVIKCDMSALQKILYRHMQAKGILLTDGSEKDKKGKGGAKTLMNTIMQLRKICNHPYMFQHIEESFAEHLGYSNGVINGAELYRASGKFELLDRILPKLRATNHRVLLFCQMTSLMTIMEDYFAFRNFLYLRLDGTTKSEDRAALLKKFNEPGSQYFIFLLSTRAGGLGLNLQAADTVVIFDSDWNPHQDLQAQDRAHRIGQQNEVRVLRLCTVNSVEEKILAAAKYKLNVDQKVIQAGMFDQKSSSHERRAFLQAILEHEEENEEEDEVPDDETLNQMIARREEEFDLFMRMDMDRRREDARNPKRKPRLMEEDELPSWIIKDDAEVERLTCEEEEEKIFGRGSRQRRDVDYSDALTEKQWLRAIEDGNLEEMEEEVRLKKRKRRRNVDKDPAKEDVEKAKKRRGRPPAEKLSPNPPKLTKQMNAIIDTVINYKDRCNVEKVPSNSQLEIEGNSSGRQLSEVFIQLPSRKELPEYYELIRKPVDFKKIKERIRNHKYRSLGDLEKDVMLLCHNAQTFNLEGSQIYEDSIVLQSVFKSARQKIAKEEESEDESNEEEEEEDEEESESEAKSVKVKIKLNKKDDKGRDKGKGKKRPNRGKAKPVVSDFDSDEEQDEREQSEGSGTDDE

For `CNC(=O)C1CCCCN1CC#Cc1cc(N2C3CCC2CN(c2cc(-c4ccccc4O)nnc2N)C3)ccn1` (centres unmarked) [Compound 96, 1-[3-[4-[3-[3-amino-6-(2-hydroxyphenyl)pyridazin-4-yl]-3,8-diazabicyclo[3.2.1]octan-8-yl]-2-pyridyl]prop-2-ynyl]-N-methyl-piperidine-2-carboxamide], on BRM, the DC50 is above 100 nM and the “BRM IF Degradation Sinf (%)” value is given as “E (E indicates −30%-−70%)”. At BRG1, the DC50 lay in the range of 10 to 100 nM and the Dmax lay within 0 to 30%.
Take `Nc1nnc(-c2ccccc2O)cc1N1CC2CCC(C1)N2c1ccnc(C#CCN2CC3(CC(F)C3)C2)c1` [Compound 97, 2-[6-amino-5-[8-[2-[3-(6-fluoro-2-azaspiro[3.3]heptan-2-yl)prop-1-ynyl]-4-pyridyl]-3,8-diazabicyclo[3.2.1]octan-3-yl]pyridazin-3-yl]phenol]: at BRM, the DC50 was below 10 nM and the “BRM IF Degradation Sinf (%)” value is on record as “F (F indicates −71%-−120%)”. Besides, at BRG1, the DC50 was below 10 nM and the Dmax was in the range of 30 to 70%.
With `Nc1nnc(-c2ccccc2O)cc1N1CC2CCC(C1)N2c1ccnc(C#CCN2CC3COC(C3)C2)c1` (centres unmarked) [Compound 98, 2-[6-amino-5-[8-[2-[3-(6-oxa-3-azabicyclo[3.2.1]octan-3-yl)prop-1-ynyl]-4-pyridyl]-3,8-diazabicyclo[3.2.1]octan-3-yl]pyridazin-3-yl]phenol], the DC50 is 10 to 100 nM at BRM and above 100 nM on BRG1. Also, the “BRM IF Degradation Sinf (%)” value at BRM is reported as “E (E indicates −30%-−70%)”.
Turning to `Nc1nnc(-c2ccccc2O)cc1N1CC2CCC(C1)N2c1ccnc(C#CCN2CCCC3(CC3)C2)c1` [Compound 99, 2-[6-amino-5-[8-[2-[3-(5-azaspiro[2.5]octan-5-yl)prop-1-ynyl]-4-pyridyl]-3,8-diazabicyclo[3.2.1]octan-3-yl]pyridazin-3-yl]phenol], at BRM, the DC50 was below 10 nM and the “BRM IF Degradation Sinf (%)” value is reported as “E (E indicates −30%-−70%)”. Besides, on BRG1, the DC50 was below 10 nM and the Dmax lay in the range of 30 to 70%.
Turning to `Nc1nnc(-c2ccccc2O)cc1N1CC2CCC(C1)N2c1ccnc(C#CCN2CCC23CCCOC3)c1` (centres unmarked) [Compound 100, 2-[6-amino-5-[8-[2-[3-(8-oxa-1-azaspiro[3.5]nonan-1-yl)prop-1-ynyl]-4-pyridyl]-3,8-diazabicyclo[3.2.1]octan-3-yl]pyridazin-3-yl]phenol], at BRM, the DC50 was below 10 nM and the “BRM IF Degradation Sinf (%)” value is on record as “E (E indicates −30%-−70%)”. On BRG1, the DC50 was below 10 nM and the Dmax lay within 30 to 70%.
Turning to `Nc1nnc(-c2ccccc2O)cc1N1CC2CCC(C1)N2c1ccnc(C#CCN2CC3CCCC(C2)O3)c1` [Compound 101, 2-[6-amino-5-[8-[2-[3-(9-oxa-3-azabicyclo[3.3.1]nonan-3-yl)prop-l-ynyl]-4-pyridyl]-3,8-diazabicyclo[3.2.1]octan-3-yl]pyridazin-3-yl]phenol], on BRM, the DC50 was 10 to 100 nM and the “BRM IF Degradation Sinf (%)” value is “E (E indicates −30%-−70%)”. For the same molecule, the DC50 on BRG1 was above 100 nM.
Regarding `Nc1nnc(-c2ccccc2O)cc1N1CC2CCC(C1)N2c1ccnc(C#CCN2CCC[C@@H]3CC[C@@H]32)c1` [Compound 102, 2-[6-amino-5-[8-[2-[3-[(1S,6R)-2-azabicyclo[4.2.0]octan-2-yl]prop-1-ynyl]-4-pyridyl]-3,8-diazabicyclo[3.2.1]octan-3-yl]pyridazin-3-yl]phenol], at BRM, the DC50 was below 10 nM and the “BRM IF Degradation Sinf (%)” value was “E (E indicates −30%-−70%)”. Also, on BRG1, the DC50 was below 10 nM and the Dmax lay in the range of 30 to 70%.
Take `Nc1nnc(-c2ccccc2O)cc1N1CC2CCC(C1)N2c1ccnc(C#CCN2C3CCC(C3)C2CO)c1` (centres unmarked) [Compound 103, 2-[6-amino-5-[8-[2-[3-[3-(hydroxymethyl)-2-azabicyclo[2.2.1]heptan-2-yl]prop-1-ynyl]-4-pyridyl]-3,8-diazabicyclo[3.2.1]octan-3-yl]pyridazin-3-yl]phenol]: at BRM, the DC50 was below 10 nM and the “BRM IF Degradation Sinf (%)” value was “E (E indicates −30%-−70%)”. Moreover, on BRG1, the DC50 was above 100 nM and the Dmax lay within 30 to 70%.
On the same counts, the results for `Nc1nnc(-c2ccccc2O)cc1N1CC2CCC(C1)N2c1ccnc(C#CCN2CCC3CC2CO3)c1` (centres unmarked) [Compound 104, 2-[6-amino-5-[8-[2-[3-(6-oxa-2-azabicyclo[3.2.1]octan-2-yl)prop-1-ynyl]-4-pyridyl]-3,8-diazabicyclo[3.2.1]octan-3-yl]pyridazin-3-yl]phenol] are below 10 nM, “E (E indicates −30%-−70%)”, below 10 nM and 0 to 30%.
On the same counts, the results for `Nc1nnc(-c2ccccc2O)cc1N1CC2CCC(C1)N2c1ccnc(C#CCN2CC3CC3(O)C2)c1` (centres unmarked) [Compound 105, 3-(3-(4-(3-(3-amino-6-(2-hydroxyphenyl)pyridazin-4-yl)-3,8-diazabicyclo[3.2.1]octan-8-yl)pyridin-2-yl)prop-2-yn-1-yl)-3-azabicyclo[3.1.0]hexan-1-ol] are 10 to 100 nM, “E (E indicates −30%-−70%)”, 10 to 100 nM and 0 to 30%.
On the same counts, the results for `Nc1nnc(-c2ccccc2O)cc1N1CC2CCC(C1)N2c1ccnc(C#CCN2CCCC23CCC3)c1` [Compound 106, 2-[6-amino-5-[8-[2-[3-(5-azaspiro[3.4]octan-5-yl)prop-1-ynyl]-4-pyridyl]-3,8-diazabicyclo[3.2.1]octan-3-yl]pyridazin-3-yl]phenol] are below 10 nM, “E (E indicates −30%-−70%)”, below 10 nM and 30 to 70%.
Regarding `Nc1nnc(-c2ccccc2O)cc1N1CC2CCC(C1)N2c1ccnc(C#CCN2CCn3cccc3C2)c1` [Compound 107, 2-[6-amino-5-[8-[2-[3-(3,4-dihydro-1H-pyrrolo[l,2-a]pyrazin-2-yl)prop-1-ynyl]-4-pyridyl]-3,8-diazabicyclo[3.2.1]octan-3-yl]pyridazin-3-yl]phenol], on BRM, the DC50 lay in the range of 10 to 100 nM and the “BRM IF Degradation Sinf (%)” value is “E (E indicates −30%-−70%)”. Moreover, on BRG1, the DC50 fell in the range of 10 to 100 nM and the Dmax was 0 to 30%.
For the molecule `CN1C[C@@H]2CN(CC#Cc3cc(N4C5CCC4CN(c4cc(-c6ccccc6O)nnc4N)C5)ccn3)C[C@@H]2C1` [Compound 108, 2-[5-[8-[2-[3-[(3aS,6aR)-2-methyl-1,3,3a,4,6,6a-hexahydropyrrolo[3,4-c]pyrrol-5-yl]prop-1-ynyl]-4-pyridyl]-3,8-diazabicyclo[3.2.1]octan-3-yl]-6-amino-pyridazin-3-yl]phenol], at BRM, the DC50 was above 100 nM and the “BRM IF Degradation Sinf (%)” value is on record as “E (E indicates −30%-−70%)”. In addition, at BRG1, the DC50 was above 100 nM.
For `Nc1nnc(-c2ccccc2O)cc1N1CC2CCC(C1)N2c1ccnc(C#CCN2C[C@@H]3C[C@@H](O)[C@H]2C3)c1` [Compound 109, (1R,4S,6R)-2-[3-[4-[3-[3-amino-6-(2-hydroxyphenyl)pyridazin-4-yl]-3,8-diazabicyclo[3.2.1]octan-8-yl]-2-pyridyl]prop-2-ynyl]-2-azabicyclo[2.2.1]heptan-6-ol], on BRM, the DC50 is below 10 nM and the “BRM IF Degradation Sinf (%)” value is “E (E indicates −30%-−70%)”. For the same molecule, on BRG1, the DC50 is below 10 nM and the Dmax fell in the range of 30 to 70%.
Regarding `Nc1nnc(-c2ccccc2O)cc1N1CC2CCC(C1)N2c1ccnc(C#CCN2CCCOCC23CC3)c1` [Compound 110, 2-[6-amino-5-[8-[2-[3-(8-oxa-4-azaspiro[2.6]nonan-4-yl)prop-1-ynyl]-4-pyridyl]-3,8-diazabicyclo[3.2.1]octan-3-yl]pyridazin-3-yl]phenol], at BRM, the DC50 was below 10 nM and the “BRM IF Degradation Sinf (%)” value was “E (E indicates −30%-−70%)”. Also, at BRG1, the DC50 is above 100 nM.
Consider `Nc1nnc(-c2ccccc2O)cc1N1CC2CCC(C1)N2c1ccnc(C#CCN2C3CCCC2COC3)c1` [Compound 111, 2-[6-amino-5-[8-[2-[3-(3-oxa-9-azabicyclo[3.3.1]nonan-9-yl)prop-1-ynyl]-4-pyridyl]-3,8-diazabicyclo[3.2.1]octan-3-yl]pyridazin-3-yl]phenol], for which, on BRM, the DC50 is below 10 nM and the “BRM IF Degradation Sinf (%)” value is “E (E indicates −30%-−70%)”. Besides, at BRG1, the DC50 is below 10 nM and the Dmax was in the range of 0 to 30%.
Regarding `Nc1nnc(-c2ccccc2O)cc1N1CC2CCC(C1)N2c1ccnc(C#CCN2CCOC(F)(F)C2)c1` [Compound 112, 2-[6-amino-5-[8-[2-[3-(2,2-difluoromorpholin-4-yl)prop-1-ynyl]-4-pyridyl]-3,8-diazabicyclo[3.2.1]octan-3-yl]pyridazin-3-yl]phenol], at BRM, the DC50 was below 10 nM and the “BRM IF Degradation Sinf (%)” value is “E (E indicates −30%-−70%)”. In addition, on BRG1, the DC50 was in the range of 10 to 100 nM and the Dmax was 0 to 30%.
Regarding `Nc1nnc(-c2ccccc2O)cc1N1CC2CCC(C1)N2c1ccnc(C#CCN2C[C@H]3CCO[C@H]3C2)c1` [Compound 113, 2-[5-[8-[2-[3-[(3aR,6aR)-2,3,3a,4,6,6a-hexahydrofuro[2,3-c]pyrrol-5-yl]prop-1-ynyl]-4-pyridyl]-3,8-diazabicyclo[3.2.1]octan-3-yl]-6-amino-pyridazin-3-yl]phenol], on BRM, the DC50 lay within 10 to 100 nM and the “BRM IF Degradation Sinf (%)” value was “E (E indicates −30%-−70%)”. Also, at BRG1, the DC50 is below 10 nM and the Dmax is 0 to 30%.
